Laboratory results: the NIST ThermoML archive (doi:10.1021/je301132p)
± gives the expanded uncertainty stated by the source.

Test: mn = molality of the nth substance listed, in mol/kg
Details: Liquid, Vibrating tube method

[Cl-].[Cl-].[Sr+2] [strontium chloride] + O
mass density [kg/m3]
Details | 298.11 K | 323.13 K | 348.12 K | 373.12 K | 398.08 K | 423.07 K | 448.03 K | 473.02 K
1100 kPa, m1 = 1.022 | 1130.15 ± 0.48 | 1118.47 ± 0.48 | 1104.6 ± 0.47 | 1088.34 ± 0.47 | 1069.78 ± 0.46 | 1049.35 ± 0.45 | 1026.97 ± 0.45 | –
1100 kPa, m1 = 2.024 | 1247.6 ± 0.67 | 1234.1 ± 0.66 | 1219.34 ± 0.65 | 1202.92 ± 0.64 | 1184.72 ± 0.63 | 1165.03 ± 0.62 | 1143.84 ± 0.61 | –
1100 kPa, m1 = 3.031 | 1354.92 ± 0.87 | 1340.16 ± 0.86 | 1324.81 ± 0.85 | 1308.43 ± 0.84 | 1290.36 ± 0.82 | 1271.02 ± 0.81 | 1250.51 ± 0.8 | –
10100 kPa, m1 = 1.022 | 1133.6 ± 0.5 | 1121.92 ± 0.49 | 1108.06 ± 0.48 | 1092.02 ± 0.48 | 1073.81 ± 0.47 | 1053.57 ± 0.46 | 1031.7 ± 0.45 | 1007.66 ± 0.44
10100 kPa, m1 = 2.024 | 1250.68 ± 0.69 | 1237.28 ± 0.69 | 1222.48 ± 0.67 | 1206.28 ± 0.66 | 1188.28 ± 0.65 | 1168.83 ± 0.64 | 1147.95 ± 0.63 | 1125.38 ± 0.62
10100 kPa, m1 = 3.031 | 1357.74 ± 0.91 | 1343.03 ± 0.9 | 1327.78 ± 0.89 | 1311.58 ± 0.87 | 1293.65 ± 0.86 | 1274.46 ± 0.84 | 1254.24 ± 0.83 | 1232.68 ± 0.81
20100 kPa, m1 = 1.022 | 1137.52 ± 0.52 | 1125.75 ± 0.51 | 1111.92 ± 0.5 | 1095.98 ± 0.49 | 1078.08 ± 0.48 | 1058.3 ± 0.47 | 1037.05 ± 0.45 | 1013.5 ± 0.44
20100 kPa, m1 = 2.024 | 1254.27 ± 0.74 | 1240.69 ± 0.72 | 1226.06 ± 0.71 | 1209.96 ± 0.7 | 1192.23 ± 0.68 | 1173.04 ± 0.66 | 1152.74 ± 0.65 | 1130.5 ± 0.63
20100 kPa, m1 = 3.031 | 1360.96 ± 0.98 | 1346.27 ± 0.96 | 1331.14 ± 0.94 | 1315.04 ± 0.93 | 1297.24 ± 0.91 | 1278.29 ± 0.89 | 1258.62 ± 0.87 | 1237.28 ± 0.85
30100 kPa, m1 = 1.022 | 1141.28 ± 0.54 | 1129.44 ± 0.53 | 1115.71 ± 0.52 | 1100.03 ± 0.5 | 1082.31 ± 0.49 | 1062.95 ± 0.47 | 1042 ± 0.46 | 1019.02 ± 0.45
30100 kPa, m1 = 2.024 | 1257.65 ± 0.79 | 1244.1 ± 0.77 | 1229.57 ± 0.76 | 1213.53 ± 0.74 | 1196.08 ± 0.72 | 1177.32 ± 0.7 | 1157.21 ± 0.68 | 1135.33 ± 0.66
30100 kPa, m1 = 3.031 | 1364.07 ± 1.1 | 1349.35 ± 1 | 1334.39 ± 1 | 1318.4 ± 0.99 | 1300.87 ± 0.97 | 1282.22 ± 0.94 | 1262.72 ± 0.92 | 1241.64 ± 0.9
40100 kPa, m1 = 1.022 | 1145.04 ± 0.57 | 1133.12 ± 0.56 | 1119.42 ± 0.54 | 1103.81 ± 0.52 | 1086.33 ± 0.5 | 1067.24 ± 0.49 | 1046.83 ± 0.47 | 1024.58 ± 0.45
40100 kPa, m1 = 2.024 | 1260.99 ± 0.85 | 1247.56 ± 0.83 | 1233.02 ± 0.81 | 1217.2 ± 0.78 | 1199.73 ± 0.76 | 1181.23 ± 0.73 | 1161.52 ± 0.71 | 1140.28 ± 0.69
40100 kPa, m1 = 3.031 | 1367.19 ± 1.1 | 1352.55 ± 1.1 | 1337.62 ± 1.1 | 1321.75 ± 1.1 | 1304.29 ± 1 | 1285.9 ± 1 | 1266.77 ± 0.98 | 1246.19 ± 0.95
50100 kPa, m1 = 1.022 | 1148.76 ± 0.61 | 1136.68 ± 0.59 | 1123.04 ± 0.57 | 1107.65 ± 0.55 | 1090.29 ± 0.52 | 1071.7 ± 0.5 | 1051.49 ± 0.48 | 1029.72 ± 0.46
50100 kPa, m1 = 2.024 | 1264.44 ± 0.92 | 1250.9 ± 0.9 | 1236.41 ± 0.87 | 1220.6 ± 0.84 | 1203.4 ± 0.81 | 1185.23 ± 0.78 | 1165.8 ± 0.75 | 1144.86 ± 0.72
50100 kPa, m1 = 3.031 | 1370.34 ± 1.2 | 1355.63 ± 1.2 | 1340.81 ± 1.2 | 1324.88 ± 1.1 | 1307.65 ± 1.1 | 1289.64 ± 1.1 | 1270.62 ± 1.1 | 1250.44 ± 1
60100 kPa, m1 = 1.022 | 1152.26 ± 0.65 | 1140.25 ± 0.63 | 1126.67 ± 0.6 | 1111.38 ± 0.57 | 1094.27 ± 0.55 | 1075.85 ± 0.52 | 1056.12 ± 0.49 | 1034.76 ± 0.47
60100 kPa, m1 = 2.024 | 1267.55 ± 1 | 1254.09 ± 0.97 | 1239.66 ± 0.93 | 1224.07 ± 0.9 | 1207.02 ± 0.87 | 1189.05 ± 0.83 | 1169.91 ± 0.79 | 1149.32 ± 0.76
60100 kPa, m1 = 3.031 | 1373.16 ± 1.4 | 1358.71 ± 1.3 | 1343.89 ± 1.3 | 1328.14 ± 1.2 | 1311.1 ± 1.2 | 1293.25 ± 1.2 | 1274.47 ± 1.1 | 1254.53 ± 1.1
68600 kPa, m1 = 1.022 | 1155.3 ± 0.69 | 1143.18 ± 0.66 | 1129.67 ± 0.63 | 1114.46 ± 0.6 | 1097.55 ± 0.57 | 1079.3 ± 0.54 | 1059.85 ± 0.5 | 1038.86 ± 0.48
68600 kPa, m1 = 2.024 | 1270.33 ± 1.1 | 1256.76 ± 1 | 1242.52 ± 1 | 1226.94 ± 0.96 | 1210.03 ± 0.92 | 1192.19 ± 0.88 | 1173.33 ± 0.83 | 1153.07 ± 0.79
68600 kPa, m1 = 3.031 | 1375.7 ± 1.4 | 1361.18 ± 1.4 | 1346.54 ± 1.4 | 1330.91 ± 1.3 | 1313.86 ± 1.3 | 1296.08 ± 1.2 | 1277.59 ± 1.2 | 1257.93 ± 1.1

O=S(=O)([O-])[O-].[Na+].[Na+] [sodium sulfate] + O
mass density [kg/m3]
Details | 298.11 K | 323.13 K | 348.12 K | 373.12 K | 398.08 K | 423.07 K | 448.03 K | 473.02 K
1100 kPa, m1 = 0.783 | 1089.58 ± 0.44 | 1077.81 ± 0.43 | 1063.59 ± 0.43 | 1047 ± 0.42 | 1028.03 ± 0.41 | 1006.98 ± 0.41 | 983.81 ± 0.4 | –
1100 kPa, m1 = 1.502 | 1164.61 ± 0.55 | 1151.3 ± 0.54 | 1136.41 ± 0.54 | 1119.57 ± 0.53 | 1100.73 ± 0.52 | 1080.12 ± 0.51 | 1057.71 ± 0.5 | –
10100 kPa, m1 = 0.783 | 1092.97 ± 0.44 | 1081.15 ± 0.44 | 1067.05 ± 0.43 | 1050.62 ± 0.42 | 1032.04 ± 0.42 | 1011.36 ± 0.41 | 988.74 ± 0.4 | 963.68 ± 0.4
10100 kPa, m1 = 1.502 | 1167.61 ± 0.57 | 1154.41 ± 0.56 | 1139.53 ± 0.55 | 1122.86 ± 0.54 | 1104.32 ± 0.53 | 1084.06 ± 0.52 | 1062.06 ± 0.51 | 1038.23 ± 0.5
20100 kPa, m1 = 0.783 | 1096.83 ± 0.46 | 1084.87 ± 0.45 | 1070.84 ± 0.44 | 1054.57 ± 0.43 | 1036.41 ± 0.42 | 1016.13 ± 0.41 | 994.07 ± 0.41 | 969.72 ± 0.4
20100 kPa, m1 = 1.502 | 1170.98 ± 0.59 | 1157.75 ± 0.58 | 1143.04 ± 0.57 | 1126.48 ± 0.56 | 1108.32 ± 0.54 | 1088.31 ± 0.53 | 1067 ± 0.52 | 1043.59 ± 0.5
30100 kPa, m1 = 0.783 | 1100.47 ± 0.47 | 1088.46 ± 0.46 | 1074.53 ± 0.45 | 1058.52 ± 0.44 | 1040.58 ± 0.43 | 1020.77 ± 0.42 | 998.93 ± 0.41 | 975.48 ± 0.41
30100 kPa, m1 = 1.502 | 1174.24 ± 0.62 | 1161 ± 0.61 | 1146.45 ± 0.59 | 1130.05 ± 0.58 | 1112.1 ± 0.56 | 1092.62 ± 0.54 | 1071.61 ± 0.53 | 1048.78 ± 0.51
40100 kPa, m1 = 0.783 | 1104.07 ± 0.49 | 1092.02 ± 0.48 | 1078.24 ± 0.46 | 1062.4 ± 0.45 | 1044.61 ± 0.43 | 1025.11 ± 0.42 | 1004.1 ± 0.41 | 981.03 ± 0.41
40100 kPa, m1 = 1.502 | 1177.46 ± 0.66 | 1164.24 ± 0.64 | 1149.78 ± 0.62 | 1133.55 ± 0.6 | 1115.8 ± 0.58 | 1096.64 ± 0.56 | 1076.11 ± 0.54 | 1053.91 ± 0.52
50100 kPa, m1 = 0.783 | 1107.68 ± 0.51 | 1095.52 ± 0.5 | 1081.79 ± 0.48 | 1066.07 ± 0.46 | 1048.55 ± 0.44 | 1029.51 ± 0.42 | 1008.75 ± 0.41 | 986.37 ± 0.41
50100 kPa, m1 = 1.502 | 1180.69 ± 0.7 | 1167.41 ± 0.68 | 1153.06 ± 0.65 | 1136.94 ± 0.63 | 1119.47 ± 0.6 | 1100.57 ± 0.58 | 1080.33 ± 0.55 | 1058.64 ± 0.53
60100 kPa, m1 = 0.783 | 1111.07 ± 0.54 | 1098.98 ± 0.52 | 1085.27 ± 0.5 | 1069.75 ± 0.47 | 1052.44 ± 0.45 | 1033.66 ± 0.43 | 1013.33 ± 0.41 | 991.46 ± 0.41
60100 kPa, m1 = 1.502 | 1183.64 ± 0.75 | 1170.49 ± 0.72 | 1156.2 ± 0.69 | 1140.35 ± 0.66 | 1123.02 ± 0.63 | 1104.44 ± 0.6 | 1084.59 ± 0.57 | 1063.34 ± 0.55
68600 kPa, m1 = 0.783 | 1113.99 ± 0.57 | 1101.8 ± 0.54 | 1088.2 ± 0.52 | 1072.82 ± 0.49 | 1055.65 ± 0.46 | 1037.1 ± 0.44 | 1017.15 ± 0.42 | 995.65 ± 0.41
68600 kPa, m1 = 1.502 | 1186.24 ± 0.79 | 1173.08 ± 0.76 | 1158.87 ± 0.73 | 1143.15 ± 0.7 | 1125.97 ± 0.66 | 1107.66 ± 0.63 | 1088.14 ± 0.59 | 1067.18 ± 0.56
